The values that follow come from article PMC7070685, “Efficient Biocatalytic Synthesis of Dihalogenated Purine Nucleoside Analogues Applying Thermodynamic Calculations” (Molecules, 2020).

By IC50 is commonly meant the concentration that inhibits the measured activity by half.

SMILES strings stand for the structures.

One assay deals with HL-60 cells. As to the kind of experiment: XTT cell proliferation assay, HL-60. The class given is cell-based. As to conditions: Homo sapiens; leukemia cell line HL-60, XTT assay after 24 h; read-out: IC50, inhibition of growth of HL-60 cells. The protocol:
(§1) HEK293 cells were cultured in […] Dulbecco’s modified Eagle’s medium (Biowest) containing 10% fetal bovine serum, 2 mM glutamine, non-essential amino acids, 4.5 mg mL^−1 glucose, and the antibiotics penicillin and streptomycin. HL-60 cells were cultured in RPMI 1640 w/o L-Glutamine supplemented with 10% fetal bovine serum, 2 mM glutamine, and the antibiotics penicillin and streptomycin. Cells were grown at 37 °C in a humidified atmosphere with 5% CO2.
(§2) Cytotoxicity was measured by the XTT assay at 450 nm as described by the manufacturer (Roche Diagnostics, Basel, Switzerland). Phosphate-buffered saline was used as negative control. For HL-60 and HEK293 cells, 1.2 × 10^5 cells in growth media were transferred to each well of a 96-well flat-bottom plate. Subsequently, modified nucleosides were added in varying concentrations. XTT assay was performed after 24 h for HL-60 and HEK293 cells, as described previously. At least three replicates for each nucleoside concentration were performed. All experiments were conducted for a minimum of three independent experiments.
For orientation: Formazan colour is commonly taken as a measure of viable cells.

The test system of the next assay is HEK293 cells. As to the kind of experiment: XTT cell proliferation assay, control cell line HEK293. As to conditions: control cell line HEK293, XTT assay after 24 h. The assay is classed as cell-based. Here is the method: as §1, §2

For the compound `Nc1nc(Cl)nc2c1ncn2[C@H]1C[C@H](O)[C@@H](CO)O1` [cladribine], the half-maximal inhibitory concentration (IC50) with HL-60 cells is 220 nM. Besides, the “inhibition of growth of the control cell line HEK293” value in the assay on HEK293 cells is given as “No unspecific growth inhibition”.
